The supplement of paper PMC13386468

Assays:
Experiment in all cases: IC50 for competition of protein binding to Kinobeads
Conditions in all cases: assay detail: Kinobeads competition in P. falciparum blood-stage lysate
UniProt Q8IEK3 = molecular target: UniProt Q8IEK3
UniProt Q8IE20 = molecular target: UniProt Q8IE20
UniProt Q8IJZ3 = molecular target: UniProt Q8IJZ3
UniProt Q8IB78 = molecular target: UniProt Q8IB78
UniProt C0H5J9 = molecular target: UniProt C0H5J9
UniProt Q8IJI7 = molecular target: UniProt Q8IJI7
UniProt Q8I5D4 = molecular target: UniProt Q8I5D4
UniProt Q8I5X7 = molecular target: UniProt Q8I5X7
UniProt Q8IC05 = molecular target: UniProt Q8IC05
UniProt Q8IDM2 = molecular target: UniProt Q8IDM2
UniProt Q8IE81 = molecular target: UniProt Q8IE81
UniProt Q8ILZ7 = molecular target: UniProt Q8ILZ7
UniProt Q8IBP8 = molecular target: UniProt Q8IBP8
UniProt Q8IKU1 = molecular target: UniProt Q8IKU1
UniProt Q8I5S4 = molecular target: UniProt Q8I5S4
UniProt Q8I353 = molecular target: UniProt Q8I353
UniProt C0H4C5 = molecular target: UniProt C0H4C5
UniProt C6KTB1 = molecular target: UniProt C6KTB1
UniProt Q8I3J0 = molecular target: UniProt Q8I3J0
UniProt Q8I5A4 = molecular target: UniProt Q8I5A4
UniProt Q8IDW1 = molecular target: UniProt Q8IDW1
UniProt C0H4V4 = molecular target: UniProt C0H4V4
UniProt Q8IIB6 = molecular target: UniProt Q8IIB6
UniProt C6KT18 = molecular target: UniProt C6KT18
UniProt Q8I3X2 = molecular target: UniProt Q8I3X2
UniProt Q8IL88 = molecular target: UniProt Q8IL88
UniProt Q8I388 = molecular target: UniProt Q8I388
UniProt Q8ILC1 = molecular target: UniProt Q8ILC1
Sequence of UniProt Q8ILC1 (Q8ILC1 whole entry): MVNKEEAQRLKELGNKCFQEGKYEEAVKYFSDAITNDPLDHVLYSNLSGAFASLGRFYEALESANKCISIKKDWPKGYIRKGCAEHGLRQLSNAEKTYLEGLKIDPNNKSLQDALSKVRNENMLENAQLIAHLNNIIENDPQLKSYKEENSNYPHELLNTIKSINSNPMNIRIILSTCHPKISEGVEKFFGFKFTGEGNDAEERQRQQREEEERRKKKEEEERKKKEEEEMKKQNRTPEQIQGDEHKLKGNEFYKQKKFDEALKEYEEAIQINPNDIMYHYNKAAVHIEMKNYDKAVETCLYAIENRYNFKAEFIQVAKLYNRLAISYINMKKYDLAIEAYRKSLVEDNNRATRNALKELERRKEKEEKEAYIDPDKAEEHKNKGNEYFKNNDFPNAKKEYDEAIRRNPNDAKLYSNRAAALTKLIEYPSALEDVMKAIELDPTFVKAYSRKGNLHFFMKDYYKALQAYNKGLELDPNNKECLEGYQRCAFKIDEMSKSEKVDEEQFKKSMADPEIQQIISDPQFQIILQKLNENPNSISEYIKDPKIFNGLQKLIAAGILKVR

UniProt Q8I468 = molecular target: UniProt Q8I468
UniProt Q8IBV7 = molecular target: UniProt Q8IBV7
UniProt Q8I463 = molecular target: UniProt Q8I463
UniProt Q8II22 = molecular target: UniProt Q8II22
UniProt Q8IL58 = molecular target: UniProt Q8IL58
UniProt Q8IKQ7 = molecular target: UniProt Q8IKQ7
UniProt Q8II23 = molecular target: UniProt Q8II23
UniProt Q8II36 = molecular target: UniProt Q8II36
Sequence of UniProt Q8II36 (Q8II36 whole entry): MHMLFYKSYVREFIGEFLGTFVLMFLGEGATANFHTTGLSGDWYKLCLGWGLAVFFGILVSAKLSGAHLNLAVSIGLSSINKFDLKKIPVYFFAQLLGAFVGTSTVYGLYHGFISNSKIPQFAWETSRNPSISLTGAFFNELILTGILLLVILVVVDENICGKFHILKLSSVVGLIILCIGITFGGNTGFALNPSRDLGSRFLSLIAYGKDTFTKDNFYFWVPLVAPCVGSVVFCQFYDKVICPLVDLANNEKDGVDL

UniProt Q8I6U4 = molecular target: UniProt Q8I6U4
Sequence of UniProt Q8I6U4 (Q8I6U4 whole entry): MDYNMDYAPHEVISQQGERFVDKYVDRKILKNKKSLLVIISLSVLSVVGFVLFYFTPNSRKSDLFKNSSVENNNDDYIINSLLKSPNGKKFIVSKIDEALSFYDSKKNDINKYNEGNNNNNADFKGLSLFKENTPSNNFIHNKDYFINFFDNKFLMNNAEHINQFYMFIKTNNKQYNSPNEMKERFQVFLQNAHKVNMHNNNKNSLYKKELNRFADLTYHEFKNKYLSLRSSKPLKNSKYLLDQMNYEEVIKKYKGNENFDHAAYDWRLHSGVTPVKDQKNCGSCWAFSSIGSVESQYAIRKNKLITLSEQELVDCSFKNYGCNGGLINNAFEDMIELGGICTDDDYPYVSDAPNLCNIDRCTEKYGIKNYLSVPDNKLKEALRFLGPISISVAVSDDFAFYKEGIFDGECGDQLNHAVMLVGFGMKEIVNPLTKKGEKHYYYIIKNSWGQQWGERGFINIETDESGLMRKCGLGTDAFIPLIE

UniProt Q8IKS6 = molecular target: UniProt Q8IKS6
UniProt Q8I5A9 = molecular target: UniProt Q8I5A9
UniProt Q8IJT8 = molecular target: UniProt Q8IJT8
UniProt Q8IKR1 = molecular target: UniProt Q8IKR1
UniProt Q8ID43 = molecular target: UniProt Q8ID43
UniProt Q8II79 = molecular target: UniProt Q8II79
UniProt Q8IID2 = molecular target: UniProt Q8IID2
UniProt C6KSP9 = molecular target: UniProt C6KSP9
UniProt Q8IBL5 = molecular target: UniProt Q8IBL5
UniProt Q8I4Z2 = molecular target: UniProt Q8I4Z2
UniProt Q8I3T8 = molecular target: UniProt Q8I3T8
UniProt Q8ID42 = molecular target: UniProt Q8ID42
UniProt Q9U0N4 = molecular target: UniProt Q9U0N4
UniProt Q8IDZ2 = molecular target: UniProt Q8IDZ2

Measured: IC50
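Note: native unpurified kinases from lysate captured on beads bearing immobilized kinase inhibitors, with bead-bound kinases quantified by mass spectrometry across compound doses.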

O=c1[nH]c2ccc(Cl)cc2c(NC2CN3CCC2CC3)c1-c1nc2ccccc2[nH]1 (stereo unspecified) [CHIR-124]
> 20 µM: UniProt Q8IEK3 | UniProt Q8IE20 | UniProt Q8IJZ3 | UniProt Q8IB78 | UniProt C0H5J9 | UniProt Q8IJI7 | UniProt Q8I5X7 | UniProt Q8IC05 | UniProt Q8IDM2 | UniProt Q8IE81 | UniProt Q8ILZ7 | UniProt Q8IBP8 | UniProt Q8IKU1 | UniProt Q8I5S4 | UniProt Q8I353 | UniProt C0H4C5 | UniProt C6KTB1 | UniProt Q8I3J0 | UniProt Q8I5A4 | UniProt Q8IDW1 | UniProt C0H4V4 | UniProt Q8IIB6 | UniProt C6KT18 | UniProt Q8I3X2 | UniProt Q8IL88 | UniProt Q8I388 | UniProt Q8ILC1 | UniProt Q8I468 | UniProt Q8IBV7 | UniProt Q8I463 | UniProt Q8II22 | UniProt Q8IL58 | UniProt Q8IKQ7 | UniProt Q8II23 | UniProt Q8II36 | UniProt Q8I6U4 | UniProt Q8IKS6 | UniProt Q8I5A9 | UniProt Q8IJT8 | UniProt Q8IKR1 | UniProt Q8ID43 | UniProt Q8II79 | UniProt Q8IID2 | UniProt C6KSP9 | UniProt Q8IBL5 | UniProt Q8I4Z2 | UniProt Q8I3T8 | UniProt Q8ID42 | UniProt Q9U0N4 | UniProt Q8IDZ2
7.85 µM: UniProt Q8I5D4
